Like-named read-outs stand apart in the source and are kept apart here.
What was measured:
[1] = test system: HIV-1IIIB; test: Syncytium inhibition experiment, C8166 cells infected with HIV-1IIIB; type: cell-based; details: Human immunodeficiency virus 1, 72 h; HIV-1IIIB (MOI=0.04) in C8166 cells, syncytium count, three days
Method: (§1) C8166 cells infected with HIV-1 were used for determining the anti-HIV biological activity at the cellular level. The specific method was described below.
Syncytium inhibition experiment: 100 μL of C8166 cell suspension (4×10^5/mL) was seeded into each well of 96-well cell culture plates containing 5-fold serial dilutions of the compounds, followed by addition of HIV-1IIIB diluted supernatant (MOI=0.04). Triplicate wells were set for each serial concentration. […] The cells were cultured at 37° C. in a 5% CO2 incubator for three days. The number of the syncytia was counted in five non-overlapping fields of view by using an inverted microscope (100×).

[2] = Cytotoxicity experiment (MTT method) on C8166 cells; type: cell-based; details: human
Method: as §1
Cytotoxicity experiment: The toxicity of the compounds on C8166 cells was determined by MTT method. In 96-well cell culture plates, the compounds were subjected to 5-fold serial dilution and 100 μL of C8166 cell suspension (4×10^5/mL) was added into each well. Triplicate wells were set for each concentration. […] The cells were incubated at 37° C. in a 5% CO2 incubator for three days, followed by the addition of MTT solution into each well, and then the cells were incubated at 37° C. for 4 hours. 10% SDS-50% DMF was added into each well and the cells were incubated at 37° C. in a 5% CO2 incubator overnight. After mixing evenly, the OD values were measured by BIO-TEK ELx800 ELISA instrument (determination wavelength: 570 nm; reference wavelength: 630 nm).

[3] = C8166 cells, MTT, three days, read-out: CC50

SMILES	EC50 [1]	CC50 at 3 days [2]	CC50 at 3 days [2, 3]
CCc1c(CC2CCCCC2)nc(SCc2n[nH]c(-c3ccccc3)c2Cl)[nH]c1=O [Compound I-01]	99 nM	–	–
CCc1c(CC2CCCCC2)nc(SCc2cc(-c3ccccc3)[nH]n2)[nH]c1=O [Compound I-02]	7 nM	–	–
CCc1c(CC2CCCCC2)nc(SCc2cc(-c3cccc(Br)c3)[nH]n2)[nH]c1=O [Compound I-03]	51 nM	–	–
CCc1c(CC2CCCCC2)nc(SCc2n[nH]c(-c3cccc(Cl)c3)c2Cl)[nH]c1=O [Compound I-06]	57 nM	–	–
CCc1c(CC2CCCCC2)nc(SCc2cc(-c3ccc(OC)cc3)[nH]n2)[nH]c1=O [Compound I-10]	23 nM	–	–
CCc1c(CC2CCCCC2)nc(SCc2n[nH]c(-c3ccc(OC)c(Cl)c3)c2Cl)[nH]c1=O [Compound I-11]	130 nM	–	–
CCc1c(CC2CCCCC2)nc(SCc2cc(-c3ccc(Cl)c(Cl)c3)[nH]n2)[nH]c1=O [Compound I-12]	310 nM	–	–
CCc1c(CC2CCCCC2)nc(SCc2cc(-c3cccc(F)c3)[nH]n2)[nH]c1=O [Compound I-14]	35 nM	–	–
CCc1c(CC2CCCCC2)nc(SCc2n[nH]c(-c3cccc(F)c3)c2Cl)[nH]c1=O [Compound I-15]	71 nM	–	–
CCc1c(CC2CCCCC2)nc(SCc2cc(-c3ccc(O)cc3)[nH]n2)[nH]c1=O [Compound I-17]	4 nM	–	–
CCc1c(CC2CCCCC2)nc(SCc2n[nH]c(-c3ccc(F)c(F)c3)c2Cl)[nH]c1=O [Compound I-19]	151 nM	–	–
CCc1c(CC2CCCCC2)nc(SCc2cc(-c3ccc(F)cc3F)[nH]n2)[nH]c1=O [Compound I-20]	42 nM	–	–
CCc1c(CC2CCCCC2)nc(SCc2cc(-c3ccc(C)cc3)[nH]n2)[nH]c1=O [Compound I-21]	74 nM	–	82800 nM
CCc1c(CC2CCCCC2)nc(SCc2cc(-c3cccc(C)c3)[nH]n2)[nH]c1=O [Compound I-23]	52 nM	–	91400 nM
CCc1c(CC2CCCCC2)nc(SCc2cc(-c3cccc(C(F)(F)F)c3)[nH]n2)[nH]c1=O [Compound I-26]	302 nM	–	–
CCc1c(CC2CCCCC2)nc(SCc2n[nH]c(-c3cccc(C(F)(F)F)c3)c2Cl)[nH]c1=O [Compound I-27]	182 nM	–	–
CCc1c(CC2CCCCC2)nc(SCc2cc(-c3ccc(C(C)C)cc3)[nH]n2)[nH]c1=O [Compound I-28]	147 nM	–	–

SMILES	EC50 [1]	CC50 at 3 days [2]	CC50 at 3 days [2, 3]
CCc1c(CC2CCCCC2)nc(SCc2cc(-c3ccc(C)cc3C)[nH]n2)[nH]c1=O [Compound I-29]	476 nM	–	–
CCc1c(CC2CCCCC2)nc(SCc2cc(C)[nH]n2)[nH]c1=O [Compound I-32]	28 nM	–	–
CC(C)c1c(CC2CCCCC2)nc(SCc2cc(-c3ccccc3)[nH]n2)[nH]c1=O [Compound I-35]	2 nM	104000 nM	–
CC(C)c1c(CC2CCCCC2)nc(SCc2n[nH]c(-c3ccc(F)cc3)c2Cl)[nH]c1=O [Compound I-37]	6 nM	73000 nM	–
CC(C)c1c(CC2CCCCC2)nc(SCc2cc(-c3ccc(O)cc3)[nH]n2)[nH]c1=O [Compound I-38]	3 nM	156000 nM	–
Cc1c(CC2CCCCC2)nc(SCc2cc(-c3ccc(F)cc3)[nH]n2)[nH]c1=O [Compound I-42]	355 nM	–	–
O=c1cc(CC2CCCCC2)nc(SCc2cc(-c3ccccc3)[nH]n2)[nH]1 [Compound I-44]	5340 nM	–	–
O=c1cc(CC2CCCCC2)nc(SCc2n[nH]c(-c3ccccc3)c2Cl)[nH]1 [Compound I-48]	927 nM	98900 nM	–
Cc1c(CC2CCCCC2)nc(SCc2n[nH]c(-c3ccc(F)c(F)c3)c2Cl)[nH]c1=O [Compound I-56]	587 nM	40300 nM	–
O=c1cc(CC2CCCCC2)nc(SCc2cc(-c3ccc(F)c(F)c3)[nH]n2)[nH]1 [Compound I-59]	23900 nM	89100 nM	–
CCc1c(Cc2c(Cl)cccc2Cl)nc(SCc2cc(-c3ccc(F)c(F)c3)[nH]n2)[nH]c1=O [Compound I-60]	733 nM	64900 nM	–
CCc1c(Cc2cc(F)cc(F)c2)nc(SCc2cc(-c3ccc(F)c(F)c3)[nH]n2)[nH]c1=O [Compound I-61]	124 nM	46400 nM	–
CCc1c(Cc2ccc3c(c2)OCO3)nc(SCc2cc(-c3ccc(F)c(F)c3)[nH]n2)[nH]c1=O [Compound I-62]	4980 nM	> 200000 nM	–
CCc1c(Cc2ccc3c(c2)OCO3)nc(SCc2n[nH]c(-c3ccc(F)cc3)c2Cl)[nH]c1=O [Compound I-65]	370 nM	> 200000 nM	–
O=c1cc(CC2CCCCC2)nc(SCc2n[nH]c(-c3ccc(F)cc3)c2Cl)[nH]1 [Compound I-67]	847 nM	> 200000 nM	–
Cc1c(CC2CCCCC2)nc(SCc2n[nH]c(-c3ccc(F)cc3)c2Cl)[nH]c1=O [Compound I-68]	111 nM	> 200000 nM	–
Cc1ccnc2c1NC(=O)c1cccnc1N2C1CC1 [NVP, Nevirapine, reference compound]	58.4 nM	–	–

More lines, in order of falling EC50 [1], values ahead:

EC50 [1]	SMILES	CC50 at 3 days [2]	CC50 at 3 days [2, 3]
10100 nM	O=c1cc(CC2CCCCC2)nc(SCc2cc(-c3ccc(F)cc3)[nH]n2)[nH]1 [Compound I-45]	–	–
3960 nM	COc1ccc(-c2cc(CSc3nc(CC4CCCCC4)cc(=O)[nH]3)n[nH]2)cc1 [Compound I-46]	–	–
3880 nM	O=c1cc(CC2CCCCC2)nc(SCc2n[nH]c(-c3ccc(F)c(F)c3)c2Cl)[nH]1 [Compound I-54]	89000 nM	–
2970 nM	CCc1c(Cc2ccc3c(c2)OCO3)nc(SCc2cc(-c3ccc(F)cc3)[nH]n2)[nH]c1=O [Compound I-50]	78000 nM	–
643 nM	CCc1c(Cc2c(Cl)cccc2Cl)nc(SCc2n[nH]c(-c3ccc(F)cc3)c2Cl)[nH]c1=O [Compound I-64]	> 200000 nM	–
602 nM	CCc1c(Cc2c(Cl)cccc2Cl)nc(SCc2cc(-c3ccc(F)cc3)[nH]n2)[nH]c1=O [Compound I-51]	45500 nM	–
400 nM	CCc1c(Cc2ccccc2)nc(SCc2cc(-c3ccc(F)c(F)c3)[nH]n2)[nH]c1=O [Compound I-58]	81000 nM	–
296 nM	CCc1c(CC2CCCCC2)nc(SCc2cc(C(C)(C)C)[nH]n2)[nH]c1=O [Compound I-30]	–	–
194 nM	COc1ccc(-c2cc(CSc3nc(CC4CCCCC4)c(C)c(=O)[nH]3)n[nH]2)cc1 [Compound I-43]	–	–
186 nM	Cc1c(CC2CCCCC2)nc(SCc2cc(-c3ccccc3)[nH]n2)[nH]c1=O [Compound I-41]	–	–
162 nM	CCc1c(CC2CCCCC2)nc(SCc2cc(-c3ccc(F)c(F)c3)[nH]n2)[nH]c1=O [Compound I-18]	–	–
142 nM	Cc1c(CC2CCCCC2)nc(SCc2cc(-c3ccc(O)cc3)[nH]n2)[nH]c1=O [Compound I-47]	61800 nM	–
138 nM	CCc1c(CC2CCCCC2)nc(SCc2n[nH]c(-c3ccc(C)cc3)c2Cl)[nH]c1=O [Compound I-22]	–	–
101 nM	CCc1c(CC2CCCCC2)nc(SCc2n[nH]c(-c3cccc(Br)c3)c2Cl)[nH]c1=O [Compound I-04]	–	–
89 nM	CCc1c(CC2CCCCC2)nc(SCc2n[nH]c(-c3ccc(Cl)cc3)c2Cl)[nH]c1=O [Compound I-16]	–	–
86 nM	CCc1c(CC2CCCCC2)nc(SCc2n[nH]c(-c3cccc(C)c3)c2Cl)[nH]c1=O [Compound I-24]	–	–
80 nM	CCc1c(Cc2cc(F)cc(F)c2)nc(SCc2n[nH]c(-c3ccc(F)c(F)c3)c2Cl)[nH]c1=O [Compound I-57]	81100 nM	–
66 nM	CCc1c(CC2CCCCC2)nc(SCc2cc(-c3cccc(Cl)c3)[nH]n2)[nH]c1=O [Compound I-05]	–	–
63 nM	CCc1c(Cc2cc(F)cc(F)c2)nc(SCc2n[nH]c(-c3ccc(F)cc3)c2Cl)[nH]c1=O [Compound I-63]	> 200000 nM	–
49 nM	Cc1cn([C@H]2C[C@H](N=[N+]=[N-])[C@@H](CO)O2)c(=O)[nH]c1=O [AZT, Zidovudine, reference compound]	> 749000 nM	–
33 nM	CCc1c(CC2CCCCC2)nc(SCc2cc[nH]n2)[nH]c1=O [Compound I-31]	–	–
25 nM	CCc1c(CC2CCCCC2)nc(SCc2cc(C3CC3)[nH]n2)[nH]c1=O [Compound I-33]	–	–
23 nM	CCc1c(CC2CCCCC2)nc(SCc2cc(-c3ccccn3)[nH]n2)[nH]c1=O [Compound I-34]	–	–
20 nM	CCc1c(CC2CCCCC2)nc(SCc2cc(-c3ccc(F)cc3)[nH]n2)[nH]c1=O [Compound I-08]	–	–
18 nM	CCc1c(CC2CCCCC2)nc(SCc2cc(-c3ccc(Cl)cc3)[nH]n2)[nH]c1=O [Compound I-07]	–	–
18 nM	CCc1c(CC2CCCCC2)nc(SCc2n[nH]c(-c3ccc(F)cc3)c2Cl)[nH]c1=O [Compound I-09]	–	–
16 nM	CC(C)c1c(CC2CCCCC2)nc(SCc2cc(-c3ccc(F)cc3)[nH]n2)[nH]c1=O [Compound I-39]	99000 nM	–
12 nM	CCc1c(CC2CCCCC2)nc(SCc2cc(-c3ccc(SC)cc3)[nH]n2)[nH]c1=O [Compound I-25]	–	–
9 nM	CC(C)c1c(CC2CCCCC2)nc(SCc2cc(-c3ccc(Cl)cc3)[nH]n2)[nH]c1=O [Compound I-36]	91200 nM	–

— US11447470B2, “Pyrimidinone-containing compound, preparation method thereof, pharmaceutical composition and application thereof” (YUNNAN UNIVERSITY, priority 2018, dated 2022)
